Measured values from PubChem BioAssay (NCI).
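Cultured in 96-well plates, cells were exposed to test compound for 48 hours across five concentrations. GI50 is the concentration that inhibits growth by half. TGI denotes the concentration required for complete inhibition of growth.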

Experiments:
Test in all cases: NCI-60 cell line screen, 48 h
[1] = test system: PC-3 prostate
[2] = test system: SF-268 CNS
[3] = test system: HCC-2998 colon
[4] = test system: U251 CNS
[5] = test system: NCI-H460 lung
[6] = test system: EKVX NSCLC
[7] = test system: UACC-257 melanoma
[8] = test system: MOLT-4 leukemia
[9] = test system: MCF7 breast
[10] = test system: NCI-H522 lung
[11] = test system: SF-295 CNS
[12] = test system: A498 renal
[13] = test system: SR leukemia
[14] = test system: SK-MEL-28 melanoma
[15] = test system: HCT-15 colon
[16] = test system: SNB-19 CNS
[17] = test system: A549 NSCLC
[18] = test system: 786-0 renal
[19] = test system: CCRF-CEM leukemia
[20] = test system: CAKI-1 renal
[21] = test system: LOX IMVI melanoma
[22] = test system: SW-620 colon
[23] = test system: NCI/ADR-RES ovarian
[24] = test system: T-47D breast
[25] = test system: SNB-75 CNS
[26] = test system: RXF 393 renal
[27] = test system: HOP-62 NSCLC
[28] = test system: OVCAR-5 ovarian

Question: Which results are given for O=C1C2=C(C(=O)c3c(O)cccc31)C(c1ccco1)c1sc(=O)[nH]c1S2 (stereo not given)?
Answer: GI50 [1]: 2.75 µM; TGI [1]: 21.6 µM; GI50 [2]: 3.48 µM; TGI [2]: 19.2 µM; GI50 [3]: 2.5 µM; TGI [3]: 5.51 µM; GI50 [4]: 3.07 µM; TGI [4]: 10.1 µM; GI50 [5]: 1.54 µM; TGI [5]: 3.48 µM; GI50 [6]: 6.75 µM; TGI [6]: 19.4 µM; GI50 [7]: 1.57 µM; TGI [7]: 3.26 µM; GI50 [8]: 2.71 µM; TGI [8]: 9.88 µM; GI50 [9]: 1.39 µM; TGI [9]: 3.34 µM; GI50 [10]: 2.31 µM; TGI [10]: 6.99 µM; GI50 [11]: 1.98 µM; TGI [11]: 3.59 µM; GI50 [12]: 3.48 µM; TGI [12]: 9.69 µM; GI50 [13]: 3.05 µM; TGI [13]: 69.5 µM; GI50 [14]: 1.87 µM; TGI [14]: 3.72 µM; GI50 [15]: 1.75 µM; TGI [15]: 3.88 µM; GI50 [16]: 2.6 µM; TGI [16]: 7.33 µM; GI50 [17]: 1.78 µM; TGI [17]: 3.63 µM; GI50 [18]: 7.09 µM; TGI [18]: 24.2 µM; GI50 [19]: 3.29 µM; TGI [19]: > 100 µM; GI50 [20]: 3.29 µM; TGI [20]: 13.9 µM; GI50 [21]: 2.21 µM; TGI [21]: 7.55 µM; GI50 [22]: 3.28 µM; TGI [22]: 10.5 µM; GI50 [23]: 3.02 µM; TGI [23]: 12.3 µM; GI50 [24]: 2.87 µM; TGI [24]: 13 µM; GI50 [25]: 3.17 µM; TGI [25]: 7.61 µM; GI50 [26]: 2.02 µM; TGI [26]: 5.57 µM; GI50 [27]: 2.04 µM; TGI [27]: 3.74 µM; GI50 [28]: 2.13 µM
